Patent publication US9387216B2, “Biomarkers for treatment of neoplastic disorders using androgen-targeted therapies” (Tokai Pharmaceuticals, Inc., priority 2013, dated 2016)
Like-named read-outs stand apart in the source and are kept apart here.

Assays:
full-length AR and AR-V7 = target: T1, full-length AR and AR-V7 (Homo sapiens, UniProt P10275, H875Y); format: cell-based
T1 construct: CWR22rv1 cell line which constitutively expresses both AR and AR-V7; endogenous in cells; host or cells: CWR22rv1
T1 sequence (P10275 1-920 H875Y): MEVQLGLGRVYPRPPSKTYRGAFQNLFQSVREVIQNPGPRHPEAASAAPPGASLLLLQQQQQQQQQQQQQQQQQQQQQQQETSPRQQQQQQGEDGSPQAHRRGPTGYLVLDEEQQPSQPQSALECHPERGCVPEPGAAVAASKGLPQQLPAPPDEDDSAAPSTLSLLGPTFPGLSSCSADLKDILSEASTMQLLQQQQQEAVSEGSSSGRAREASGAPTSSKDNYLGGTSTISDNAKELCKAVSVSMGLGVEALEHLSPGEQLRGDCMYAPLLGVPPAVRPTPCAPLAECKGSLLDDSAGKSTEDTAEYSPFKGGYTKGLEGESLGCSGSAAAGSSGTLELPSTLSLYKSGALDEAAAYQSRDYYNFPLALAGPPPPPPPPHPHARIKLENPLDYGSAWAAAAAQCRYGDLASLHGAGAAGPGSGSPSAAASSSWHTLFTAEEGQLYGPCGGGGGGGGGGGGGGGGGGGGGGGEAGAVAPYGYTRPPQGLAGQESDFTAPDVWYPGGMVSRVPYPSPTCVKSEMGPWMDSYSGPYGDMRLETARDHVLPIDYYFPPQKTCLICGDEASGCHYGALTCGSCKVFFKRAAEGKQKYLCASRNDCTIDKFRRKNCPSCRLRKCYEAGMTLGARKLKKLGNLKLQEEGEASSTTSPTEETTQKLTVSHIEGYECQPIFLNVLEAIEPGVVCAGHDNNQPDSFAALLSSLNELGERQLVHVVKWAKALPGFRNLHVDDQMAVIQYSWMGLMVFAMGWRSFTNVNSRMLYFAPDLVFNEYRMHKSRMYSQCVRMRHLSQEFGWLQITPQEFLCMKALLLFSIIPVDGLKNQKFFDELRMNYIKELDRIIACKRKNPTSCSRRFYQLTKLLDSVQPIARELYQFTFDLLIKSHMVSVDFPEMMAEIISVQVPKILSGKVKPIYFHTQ
Protocol: An experiment to detect expression of full-length AR and AR-V7 variant proteins was conducted in a CWR22rv1 cell line which constitutively expresses both AR and AR-V7. […] See also FIG. 4.

CWR22rv1 cell line = test: Cell proliferation in CWR22rv1 cell line; format: cell-based
[1] = tested on: LNCaP cells, CRPC cells, Enzalutamide resistant cell lines 49F and 49C; test: Crystal violet and MTT proliferation/viability assays in LNCaP, CRPC and Enzalutamide resistant (49C, 49F) cells; format: cell-based
[2] = tested on: AR and prostate-specific antigen (PSA) protein expression; test: AR and PSA protein expression (western blot) in LNCaP and Enzalutamide resistant cells; format: cell-based
AR nuclear translocation = AR nuclear translocation by immunocytochemistry / immunofluorescence; format: cell-based
AR activity = test: AR luciferase assay; format: cell-based
[3] = tested on: LuCaP136 castration resistant xenograft tumors which express AR-V7; test: Xenograft model of CRPC in mice (LuCaP136); format: in vivo
Protocol: Galeterone was tested in a xenograft model of CRPC in mice. […] AR-V7 was detected in LuCaP136 castration resistant xenograft tumors using RT-PCR.

PSA levels = test: PSA response of CRPC patients by AR C-terminal status; format: in vivo, human; conditions: for maximal reductions in PSA levels: patients with AR C-terminal loss
Protocol: A group of six patients naive to previous CRPC therapy was analyzed with respect to AR status. Four of the six patients were identified as having AR receptors with a C-terminal loss as determined by the evaluation of C-terminal androgen receptor expression in relation to N-terminal androgen receptor expression. All four of the patients having this AR variant had maximal reductions in PSA levels of at least 50%.

[4] = tested on: AR-dependent gene expression; test: AR-dependent gene expression in cells with wild-type AR and AR point mutations; format: cell-based
Text: These cells also express AR receptors with F876L mutation.

CYP17 lyase = target: T2, CYP17 lyase (Homo sapiens, UniProt P05093); conditions: steroidogenic pathway; cited from earlier work
T2 sequence (P05093 1-508): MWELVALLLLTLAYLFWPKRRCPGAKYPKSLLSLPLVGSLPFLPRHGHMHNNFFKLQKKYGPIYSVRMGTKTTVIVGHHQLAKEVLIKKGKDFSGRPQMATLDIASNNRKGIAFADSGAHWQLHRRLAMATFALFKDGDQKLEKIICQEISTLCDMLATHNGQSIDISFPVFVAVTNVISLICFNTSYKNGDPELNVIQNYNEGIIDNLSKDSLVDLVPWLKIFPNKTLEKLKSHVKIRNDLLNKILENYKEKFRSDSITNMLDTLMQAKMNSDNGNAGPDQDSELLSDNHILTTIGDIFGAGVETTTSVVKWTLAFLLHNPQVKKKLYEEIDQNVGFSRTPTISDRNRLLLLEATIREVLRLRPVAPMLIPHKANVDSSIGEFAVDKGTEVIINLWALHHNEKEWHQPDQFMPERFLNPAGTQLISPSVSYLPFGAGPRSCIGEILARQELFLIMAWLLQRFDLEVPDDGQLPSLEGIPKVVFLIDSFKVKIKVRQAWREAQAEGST

[5] = cited from earlier work
[6] = enzalutamide-responsive CPRC cell line
[7] = patients expressing AR-V7 mRNA in circulating tumor cells

C[C@]12CC[C@H](O)CC1=CC[C@@H]1[C@@H]2CC[C@]2(C)C(n3cnc4ccccc43)=CC[C@@H]12 [Galeterone, 3-β-Hydroxyl 17-(1H-benzimidazol-1-yl)androsta-5,16-diene]
abiraterone and enzalutamide resistance due to AR splice variants (full-length AR and AR-V7): successfully overcomes abiraterone and enzalutamide resistance due to AR splice variants
cell proliferation (CWR22rv1 cell line): reduces cell proliferation
anti-proliferative effects ([1]; crystal violet and MTT assays, LNCaP cells, CRPC cells, Enzalutamide resistant cells): had anti-proliferative effects
castration-resistant LNCaP growth and enzalutamide-resistant cell growth in vitro ([1]; summary of the data): suppresses castration-resistant LNCaP growth as well as enzalutamide-resistant cell growth
AR and PSA protein expression levels ([2]; Enzalutamide resistant cell line): still observed in resistant cells
AR and PSA protein expression levels ([2]; LNCaP cells): induced a greater reduction in AR and prostate-specific antigen (PSA) protein expression
AR nuclear translocation (immunofluorescence, FIG. 15B) (AR nuclear translocation; cytoplasmic vs nuclear green staining vs. control): reduces AR nuclear translocation
AR activity (luciferase) (AR activity; Enzalutamide resistant cell lines 49C and 49F): reduced AR activity in all three cell lines
AR activity (luciferase) (AR activity; [6]): reduced AR activity in all three cell lines
AR activity (summary) (AR activity; summary of the data): strongly inhibits AR activity
response of castration resistant tumors which express AR-V7 [3]: respond
maximal reductions in PSA levels (PSA levels; 12 weeks at 2550 mg daily): at least 50%
maximal reductions in PSA levels (PSA levels; 12 weeks at 2550 mg daily, listed as galeterone): > 50%
patients with maximal PSA response (PSA levels; patients with C-terminal AR loss): 4/4
reduction in PSA (PSA levels; two patients without loss of the AR C-terminal domain, 12 weeks at 2550 mg daily): did not respond as strongly
AR-dependent gene expression [4]: reduces AR-dependent gene expression
inhibition of CYP17 lyase (CYP17 lyase): potent inhibitor

CNC(=O)c1ccc(N2C(=S)N(c3ccc(C#N)c(C(F)(F)F)c3)C(=O)C2(C)C)cc1F [Enzalutamide, reference compound]
AR and PSA protein expression levels ([2]; LNCaP cells): reduced AR and PSA protein expression levels
AR activity (luciferase) (AR activity; [6]): reduced AR activity
patients for which PSA levels dropped by 50% ([5]; AR-V7 negative patients): 53%
time to progression ([5]; AR-V7 negative patients): 6.1 months
PSA decline [5, 7]: no PSA decline
time to progression [5, 7]: 2.1 months

C[C@]1(O)CC[C@H]2[C@@H]3CCC4=CC(=O)CCC4=C3C=C[C@@]21C [Compound R1881, reference compound]
AR translocation to the nucleus (AR nuclear translocation): caused robust AR translocation to the nucleus
